Test results as given in patent publication US20260265238A1, “COMPOUNDS AND PHARMACEUTICAL COMPOSITIONS THAT DEGRADE SWI/SNF-RELATED MATRIX-ASSOCIATED ACTIN-DEPENDENT REGULATOR OF CHROMATIN SUBFAMILY A” (Plexium, Inc., priority 2023, published 2026).

Legend:
[1] = target: T1, SMARCA2-HiBiT HeLa cells (protein which is expressed from the SMARCA2 gene) (Homo sapiens, UniProt P51531); experiment: SMARCA2 degradation assay (HiBiT-fusion HeLa cell line, 24 h, luminescence); format: cell-based
T1 construct: protein which is expressed from the SMARCA2 and SMARCA4 genes; host or cells: HeLa (SMARCA2-HiBiT engineered line)
How it was run: (§1)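 SMARCA2- or SMARCA4-HiBiT HeLa cells seeded overnight at 37° C, then given compound as a 10-point dilution (typically 10 μM to 300 pM) for 24 h at 37° C. Protein level read by HiBiT lytic detection luminescence; DC50 from dose-response curves; degradation also scored at 1 μM.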

[2] = target: T2, SMARCA4-HiBiT HeLa cells (protein which is expressed from the SMARCA4 gene) (Homo sapiens, UniProt P51532); experiment: SMARCA4 degradation assay (HiBiT-fusion HeLa cell line, 24 h, luminescence); format: cell-based
T2 construct: protein which is expressed from the SMARCA2 and SMARCA4 genes; host or cells: HeLa (SMARCA4-HiBiT engineered line)
How it was run: as §1

T1 sequence (P51531 whole entry, the tested form may be a part): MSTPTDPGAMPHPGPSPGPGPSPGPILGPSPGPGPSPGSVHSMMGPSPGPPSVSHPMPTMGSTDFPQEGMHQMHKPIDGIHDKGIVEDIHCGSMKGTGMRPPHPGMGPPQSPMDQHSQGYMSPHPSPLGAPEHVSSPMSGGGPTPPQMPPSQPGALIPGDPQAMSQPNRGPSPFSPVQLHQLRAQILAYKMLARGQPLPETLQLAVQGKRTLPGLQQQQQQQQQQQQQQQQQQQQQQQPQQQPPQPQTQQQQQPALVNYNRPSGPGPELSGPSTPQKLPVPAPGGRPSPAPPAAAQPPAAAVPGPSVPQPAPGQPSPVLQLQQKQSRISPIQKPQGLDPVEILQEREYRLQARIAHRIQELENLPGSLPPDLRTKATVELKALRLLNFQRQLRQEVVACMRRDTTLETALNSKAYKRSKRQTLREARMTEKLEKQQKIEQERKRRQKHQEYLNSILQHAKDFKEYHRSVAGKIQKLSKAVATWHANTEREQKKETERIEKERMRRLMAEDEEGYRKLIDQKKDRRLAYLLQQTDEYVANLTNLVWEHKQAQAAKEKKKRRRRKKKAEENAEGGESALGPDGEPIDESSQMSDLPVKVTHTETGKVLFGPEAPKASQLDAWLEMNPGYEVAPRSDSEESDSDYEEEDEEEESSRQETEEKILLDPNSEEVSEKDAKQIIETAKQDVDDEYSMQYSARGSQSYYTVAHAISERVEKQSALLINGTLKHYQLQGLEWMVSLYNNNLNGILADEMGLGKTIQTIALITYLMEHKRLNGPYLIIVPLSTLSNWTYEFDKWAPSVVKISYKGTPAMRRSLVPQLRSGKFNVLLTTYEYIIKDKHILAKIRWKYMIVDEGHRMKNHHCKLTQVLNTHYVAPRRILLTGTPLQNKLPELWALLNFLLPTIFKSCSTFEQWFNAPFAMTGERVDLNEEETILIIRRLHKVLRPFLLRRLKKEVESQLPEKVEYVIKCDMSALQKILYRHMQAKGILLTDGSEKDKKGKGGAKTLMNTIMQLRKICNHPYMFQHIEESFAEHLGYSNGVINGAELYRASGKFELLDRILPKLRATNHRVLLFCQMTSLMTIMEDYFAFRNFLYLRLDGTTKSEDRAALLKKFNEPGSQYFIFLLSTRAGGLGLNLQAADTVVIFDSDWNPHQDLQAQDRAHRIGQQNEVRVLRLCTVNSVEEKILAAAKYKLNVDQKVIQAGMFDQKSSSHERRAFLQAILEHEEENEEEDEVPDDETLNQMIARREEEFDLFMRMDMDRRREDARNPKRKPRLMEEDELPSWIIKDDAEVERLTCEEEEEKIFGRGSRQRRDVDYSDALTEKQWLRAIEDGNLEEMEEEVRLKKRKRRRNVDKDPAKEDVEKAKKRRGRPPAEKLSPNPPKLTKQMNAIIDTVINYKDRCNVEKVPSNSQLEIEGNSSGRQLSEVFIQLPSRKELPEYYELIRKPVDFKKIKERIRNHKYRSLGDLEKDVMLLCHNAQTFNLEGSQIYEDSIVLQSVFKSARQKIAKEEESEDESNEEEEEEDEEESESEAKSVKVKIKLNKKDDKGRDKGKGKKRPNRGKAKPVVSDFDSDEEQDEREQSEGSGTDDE
T2 sequence (P51532 whole entry, the tested form may be a part): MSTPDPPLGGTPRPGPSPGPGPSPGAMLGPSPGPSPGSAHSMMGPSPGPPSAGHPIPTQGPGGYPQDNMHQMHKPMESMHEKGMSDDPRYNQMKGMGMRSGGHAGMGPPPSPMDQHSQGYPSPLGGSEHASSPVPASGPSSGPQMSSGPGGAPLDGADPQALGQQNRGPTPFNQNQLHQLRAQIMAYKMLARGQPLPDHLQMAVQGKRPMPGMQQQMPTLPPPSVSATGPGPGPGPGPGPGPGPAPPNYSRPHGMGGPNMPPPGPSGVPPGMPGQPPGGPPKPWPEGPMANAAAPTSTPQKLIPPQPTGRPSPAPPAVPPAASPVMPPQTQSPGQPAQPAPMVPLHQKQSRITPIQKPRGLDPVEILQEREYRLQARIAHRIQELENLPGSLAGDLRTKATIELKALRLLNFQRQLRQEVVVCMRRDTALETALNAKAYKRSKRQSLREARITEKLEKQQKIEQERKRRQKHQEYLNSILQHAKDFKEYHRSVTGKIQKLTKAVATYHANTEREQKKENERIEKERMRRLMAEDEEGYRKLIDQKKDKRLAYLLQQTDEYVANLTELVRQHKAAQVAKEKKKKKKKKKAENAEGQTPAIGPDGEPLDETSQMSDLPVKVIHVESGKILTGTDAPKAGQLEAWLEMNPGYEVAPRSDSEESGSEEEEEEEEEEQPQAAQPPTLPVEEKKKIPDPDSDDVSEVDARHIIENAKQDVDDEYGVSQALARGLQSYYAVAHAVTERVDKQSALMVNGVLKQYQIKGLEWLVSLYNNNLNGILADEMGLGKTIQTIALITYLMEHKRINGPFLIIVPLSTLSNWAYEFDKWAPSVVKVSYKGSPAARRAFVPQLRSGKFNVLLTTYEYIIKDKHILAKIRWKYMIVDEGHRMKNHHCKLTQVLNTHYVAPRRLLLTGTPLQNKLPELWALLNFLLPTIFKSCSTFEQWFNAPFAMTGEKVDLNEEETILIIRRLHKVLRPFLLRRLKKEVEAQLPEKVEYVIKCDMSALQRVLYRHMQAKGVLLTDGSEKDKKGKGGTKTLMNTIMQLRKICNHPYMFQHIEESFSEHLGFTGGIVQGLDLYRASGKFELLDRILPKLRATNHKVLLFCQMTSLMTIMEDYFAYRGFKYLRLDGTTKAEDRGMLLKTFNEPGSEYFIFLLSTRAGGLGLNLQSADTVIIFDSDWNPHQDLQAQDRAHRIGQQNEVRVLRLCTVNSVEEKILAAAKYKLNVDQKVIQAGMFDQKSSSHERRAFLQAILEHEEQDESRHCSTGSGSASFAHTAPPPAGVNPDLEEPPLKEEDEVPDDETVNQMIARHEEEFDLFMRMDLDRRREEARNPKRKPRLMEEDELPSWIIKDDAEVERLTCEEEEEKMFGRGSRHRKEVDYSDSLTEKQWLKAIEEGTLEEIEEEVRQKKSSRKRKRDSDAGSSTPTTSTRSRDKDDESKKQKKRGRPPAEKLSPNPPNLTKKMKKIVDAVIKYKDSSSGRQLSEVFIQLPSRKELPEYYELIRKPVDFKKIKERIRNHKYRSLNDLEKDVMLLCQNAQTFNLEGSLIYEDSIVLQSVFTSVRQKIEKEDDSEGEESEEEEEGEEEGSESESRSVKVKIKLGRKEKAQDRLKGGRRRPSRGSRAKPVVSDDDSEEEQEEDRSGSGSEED

Compound	DC50 [1] [nM]	SMARCA2 % Degradation @ 1 μM [1]	DC50 [2] [nM]	inhibition at 1 µM [2] [%]
Nc1nnc(-c2ccccc2O)cc1N1C2CCC1CN(c1ccnc(C#CCNC(=O)c3cc4ncccn4n3)n1)C2 [Compound P-78, N-(3-(4-(8-(3-amino-6-(2-hydroxyphenyl)pyridazin-4-yl)-3,8-diazabicyclo[3.2.1]octan-3-yl)pyrimidin-2-yl)prop-y2-yn-1-l)pyrazolo[1,5-a]pyrimidine-2-carboxamide]	50 to 500	+++ (+++=>70%)	50 to 500	30 to 70
Nc1nnc(-c2ccccc2O)cc1N1C2CC1CN(c1ccnc(C#CCNC(=O)c3cc4ncccn4n3)n1)C2 [Compound P-80, N-(3-(4-(6-(3-amino-6-(2-hydroxyphenyl)pyridazin-4-yl)-3,6-diazabicyclo[3.1.1]heptan-3-yl)pyrimidin-2-yl)prop-2-yn-1-yl)pyrazolo[1,5-a]pyrimidine-2-carboxamide]	500 to 5000	+ (+=<30%)	> 5000	< 30
NCC#Cc1nccc(N2CC3CN(c4cc(-c5ccccc5O)nnc4N)C3C2)n1 (centres unmarked) [Compound P-84, 2-(6-amino-5-(3-(2-(3-aminoprop-1-yn-1-yl)pyrimidin-4-yl)-3,6-diazabicyclo[3.2.0]heptan-6-yl)pyridazin-3-yl)phenol]	500 to 5000	+ (+=<30%)	> 5000	< 30
CC1CCN(c2cc(-c3ccccc3O)nnc2N)CCN1c1ccnc(C#CCN)n1 (centres unmarked) [Compound P-85, 2-(6-amino-5-(4-(2-(3-aminoprop-1-yn-1-yl)pyrimidin-4-yl)-5-methyl-1,4-diazepan-1-yl)pyridazin-3-yl)phenol]	500 to 5000	+ (+=<30%)	500 to 5000	< 30
C[C@H]1CN(c2ccnc(C#CCN)n2)CCN1c1cc(-c2ccccc2O)nnc1N [Compound P-86, (S)-2-(6-amino-5-(4-(2-(3-aminoprop-1-yn-1-yl)pyrimidin-4-yl)-2-methylpiperazin-1-yl)pyridazin-3-yl)phenol]	500 to 5000	+ (+=<30%)	> 5000	
NCC#Cc1nccc(N2CCC3(CCCN(c4cc(-c5ccccc5O)nnc4N)C3)CC2)n1 [Compound P-89, 2-(6-amino-5-(9-(2-(3-aminoprop-1-yn-1-yl)pyrimidin-4-yl)-2,9-diazaspiro[5.5]undecan-2-yl)pyridazin-3-yl)phenol]	500 to 5000	+ (+=<30%)	500 to 5000	< 30
NCC#Cc1nccc(N2CCC3(CC2)CCN(c2cc(-c4ccccc4O)nnc2N)CC3)n1 [Compound P-90, 2-(6-amino-5-(9-(2-(3-aminoprop-1-yn-1-yl)pyrimidin-4-yl)-3,9-diazaspiro[5.5]undecan-3-yl)pyridazin-3-yl)phenol]	500 to 5000	+ (+=<30%)	500 to 5000	< 30
NCC#Cc1nccc(N2C3CC2CN(c2cc(-c4ccccc4O)nnc2N)C3)n1 [Compound P-91, 2-(6-amino-5-(6-(2-(3-aminoprop-1-yn-1-yl)pyrimidin-4-yl)-3,6-diazabicyclo[3.1.1]heptan-3-yl)pyridazin-3-yl)phenol]	500 to 5000	+ (+=<30%)	500 to 5000	< 30
Nc1nnc(-c2ccccc2O)cc1N1CC2CCC(C1)N2c1ccnc(C#CCCNC(=O)c2cc3ncccn3n2)n1 [Compound P-96, N-(4-(4-(3-(3-amino-6-(2-hydroxyphenyl)pyridazin-4-yl)-3,8-diazabicyclo[3.2.1]octan-8-yl)pyrimidin-2-yl)but-3-yn-1-yl)pyrazolo[1,5-a]pyrimidine-2-carboxamide]	500 to 5000	++ (++=30-70%)	50 to 500	> 70
CC(C#Cc1nccc(N2C3CCC2CN(c2cc(-c4ccccc4O)nnc2N)C3)n1)NC(=O)c1cc2ncccn2n1 (centres unmarked) [Compound P-97, N-(4-(4-(3-(3-amino-6-(2-hydroxyphenyl)pyridazin-4-yl)-3,8-diazabicyclo[3.2.1]octan-8-yl)pyrimidin-2-yl)but-3-yn-2-yl)pyrazolo|1,5-a|pyrimidine-2-carboxamide]	50 to 500	++ (++=30-70%)	50 to 500	30 to 70
Nc1nnc(-c2ccccc2O)cc1N1CC2CCC(C1)N2c1ccnc(C#CC2(NC(=O)c3cc4ncccn4n3)CC2)n1 [Compound P-98, N-(1-((4-(3-(3-amino-6-(2-hydroxyphenyl)pyridazin-4-yl)-3,8-diazabicyclo[3.2.1]octan-8-yl)pyrimidin-2-yl)ethynyl)cyclopropyl)pyrazolo[1,5-a]pyrimidine-2-carboxamide]	50 to 500	++ (++=30-70%)	50 to 500	30 to 70
Nc1nnc(-c2ccccc2O)cc1N1CC2CCC(C1)N2c1ccnc(C#CCCCNC(=O)c2cc3ncccn3n2)n1 [Compound P-99, N-(5-(4-(3-(3-amino-6-(2-hydroxyphenyl)pyridazin-4-yl)-3,8-diazabicyclo[3.2.1]octan-8-yl)pyrimidin-2-yl)pent-4-yn-1-yl)pyrazolo[1,5-a]pyrimidine-2-carboxamide]	500 to 5000	+ (+=<30%)	500 to 5000	< 30
Nc1nnc(-c2ccccc2O)cc1N1CC2CCC(C1)N2c1ccnc(C#CCNc2nc3ccccc3o2)n1 [Compound P-100, 2-(6-amino-5-(8-(2-(3-(benzo[d]doxazol-2-ylamino)prop-1-yn-1-yl)pyrimidin-4-yl)-3,8-diazabicyclo[3.2.1]octan-3-yl)pyridazin-3-yl)phenol]	50 to 500	+++ (+++=>70%)	50 to 500	30 to 70
C[C@H]1CCN(c2cc(-c3ccccc3O)nnc2N)CCN1c1ccnc(C#CCNC(=O)c2cnc3ccccc3n2)n1 [Compound P-101, (S)-N-(3-(4-(4-(3-amino-6-(2-hydroxyphenyl)pyridazin-4-yl)-7-methyl-1,4-diazepan-1-yl)pyrimidin-2-y1)prop-2-yn-1-yl)quinoxaline-2-carboxamide]	< 50	+++ (+++=>70%)	< 50	> 70

Other lines, results leading:

DC50 [1] [nM]	SMARCA2 % Degradation @ 1 μM [1]	DC50 [2] [nM]	inhibition at 1 µM [2] [%]	Compound
500 to 5000	++ (++=30-70%)	50 to 500	30 to 70	Nc1nnc(-c2ccccc2O)cc1N1CCCC2C1CCN2c1ccnc(C#CCNC(=O)c2cc3ncccn3n2)n1 (centres unmarked) [Compound P-79, N-(3-(4-(4-(3-amino-6-(2-hydroxyphenyl)pyridazin-4-yl)octahydro-1H-pyrrolo[3,2-b]pyridin-1-yl)pyrimidin-2-yl)prop-2-yn-1-yl)pyrazolo[1,5-a]pyrimidine-2-carboxamide]
500 to 5000	+ (+=<30%)	500 to 5000	< 30	C[C@@H]1CN(c2ccnc(C#CCNC(=O)c3cc4ncccn4n3)n2)C[C@@H](C)N1c1cc(-c2ccccc2O)nnc1N [Compound P-82, N-(3-(4-((3R,5R)-4-(3-amino-6-(2-hydroxyphenyl)pyridazin-4-yl)-3,5-dimethylpiperazin-1-yl)pyrimidin-2-yl)prop-2-yn-1-yl)pyrazolo[1,5-a]pyrimidine-2-carboxamide]
500 to 5000	+ (+=<30%)	50 to 500	< 30	CC1(C)CN(c2ccnc(C#CCNC(=O)c3cc4ncccn4n3)n2)CCN1c1cc(-c2ccccc2O)nnc1N [Compound P-83, N-(3-(4-(4-(3-amino-6-(2-hydroxyphenyl)pyridazin-4-yl)-3,3-dimethylpiperazin-1-yl)pyrimidin-2-yl)prop-2-yn-1-yl)pyrazolo[1,5-a]pyrimidine-2-carboxamide]
50 to 500	+ (+=<30%)	50 to 500	30 to 70	Nc1nnc(-c2ccccc2O)cc1N1CCN(c2ccnc(C#CCCCNC(=O)c3cc4ncccn4n3)n2)CC1 [Compound P-92, N-(5-(4-(4-(3-amino-6-(2-hydroxyphenyl)pyridazin-4-yl)piperazin-1-yl)pyrimidin-2-yl)pent-4-yn-1-yl)pyrazolo[1,5-a]pyrimidinc-2-carboxamidc]
50 to 500	++ (++=30-70%)	< 50	30 to 70	Nc1nnc(-c2ccccc2O)cc1N1CCN(c2ccnc(C#CCNC(=O)c3cc4ncccn4n3)n2)CC1 [Compound P-93, N-(3-(4-(4-(3-amino-6-(2-hydroxyphenyl)pyridazin-4-yl)piperazin-1-yl)pyrimidin-2-yl)prop-2-yn-1-yl)pyrazolo[1,5-a]pyrimidine-2-carboxamide]
50 to 500	++ (++=30-70%)	50 to 500	< 30	Nc1nnc(-c2ccccc2O)cc1N1CCN(c2ccnc(C#CCCNC(=O)c3cc4ncccn4n3)n2)CC1 [Compound P-94, N-(4-(4-(4-(3-amino-6-(2-hydroxyphenyl)pyridazin-4-yl)piperazin-1-yl)pyrimidin-2-yl)but-3-yn-1-yl)pyrazolo[1,5-a]pyrimidine-2-carboxamide]
50 to 500	+ (+=<30%)	< 50	30 to 70	CC(C#Cc1nccc(N2CCN(c3cc(-c4ccccc4O)nnc3N)CC2)n1)NC(=O)c1cc2ncccn2n1 (centres unmarked) [Compound P-95, N-(4-(4-(4-(3-amino-6-(2-hydroxyphenyl)pyridazin-4-yl)piperazin-1-yl)pyrimidin-2-yl)but-3-yn-2-yl)pyrazolo[1,5-a]pyrimidine-2-carboxamide]
